Structures are written as SMILES.

Assay [1] concerns Rattus norvegicus. The assay is described as follows: Effect on helpless behavior in rats and the number of escape failures was determined in shuttle-box session-1 (SB-1) at 1 mg/kg dose. In kind it is functional.
Assay [2] relates to Mus musculus. The assay is described as follows: Effect on immobility time in the forced swimming test (FST) in mice at 1 mg/kg dose. Format: functional.
Assay [3] relates to Mus musculus. The assay is described as follows: Time-dependent effect on 8-OH-DPAT-induced hypothermia (change in body temperature) after 60 min, in mice at 0.1 mg/kg dose. Format: functional.
Assay [4] deals with T1, 5-hydroxytryptamine receptor 1A (Homo sapiens) (UniProt P08908).
T1 sequence (whole entry): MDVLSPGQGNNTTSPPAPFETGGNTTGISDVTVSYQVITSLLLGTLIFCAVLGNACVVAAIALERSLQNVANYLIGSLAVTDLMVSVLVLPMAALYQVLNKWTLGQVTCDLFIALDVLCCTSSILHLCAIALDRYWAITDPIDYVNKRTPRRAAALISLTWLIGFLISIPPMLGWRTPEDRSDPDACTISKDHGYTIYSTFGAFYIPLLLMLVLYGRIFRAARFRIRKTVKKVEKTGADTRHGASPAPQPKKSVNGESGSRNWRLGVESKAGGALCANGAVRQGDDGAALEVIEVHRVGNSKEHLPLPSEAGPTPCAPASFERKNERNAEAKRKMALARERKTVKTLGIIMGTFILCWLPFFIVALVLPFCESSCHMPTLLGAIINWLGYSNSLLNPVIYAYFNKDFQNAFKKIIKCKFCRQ
The conditions noted are these: HeLa.
Description: Effect (1 uM) on Forskolin-Stimulated cAMP formation, in HeLa cells transfected with the 5-HT 1A receptor

Assay [5] has as its system Mus musculus. Kind of assay: Time-dependent effect on 8-OH-DPAT-induced hypothermia (change in body temperature) after 15 min, in mice at 0.5 mg/kg dose. Format: functional.
Assay [6] has as its system Mus musculus. The assay is described as follows: Effect on immobility time in the forced swimming test (FST) in mice at 10 mg/kg dose. In kind it is functional.
Assay [7] concerns Mus musculus. The assay is described as follows: Time-dependent effect on 8-OH-DPAT-induced hypothermia (change in body temperature) after 60 min, in mice at 5 mg/kg dose. Format: functional.
The test system of assay [8] is Mus musculus. Kind of assay: Time-dependent effect on 8-OH-DPAT-induced hypothermia (change in body temperature) after 30 min, in mice at 0.1 mg/kg dose. Format: functional.
Assay [9] deals with Mus musculus. The assay is described as follows: Effect on immobility time in the forced swimming test (FST) in mice at 0 mg/kg dose. In kind it is functional.
For assay [10], the target named is T2, Adrenergic receptor alpha-1 (Rattus norvegicus, UniProt P15823+P23944+P43140).
T2 sequence (P15823 whole entry): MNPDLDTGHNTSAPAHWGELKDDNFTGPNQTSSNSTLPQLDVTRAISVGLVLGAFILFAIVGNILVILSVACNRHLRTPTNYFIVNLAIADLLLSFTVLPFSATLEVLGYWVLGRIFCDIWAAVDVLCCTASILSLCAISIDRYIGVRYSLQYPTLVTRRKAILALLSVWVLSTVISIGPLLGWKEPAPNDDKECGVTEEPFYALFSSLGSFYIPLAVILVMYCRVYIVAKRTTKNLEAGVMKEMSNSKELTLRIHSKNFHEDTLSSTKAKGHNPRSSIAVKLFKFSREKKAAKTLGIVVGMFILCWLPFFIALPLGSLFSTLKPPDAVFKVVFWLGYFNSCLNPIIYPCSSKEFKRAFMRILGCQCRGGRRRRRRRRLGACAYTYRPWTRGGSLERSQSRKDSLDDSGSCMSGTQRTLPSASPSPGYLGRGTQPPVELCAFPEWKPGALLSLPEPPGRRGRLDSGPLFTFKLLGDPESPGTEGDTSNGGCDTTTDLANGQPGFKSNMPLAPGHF
T2 sequence (P23944 whole entry): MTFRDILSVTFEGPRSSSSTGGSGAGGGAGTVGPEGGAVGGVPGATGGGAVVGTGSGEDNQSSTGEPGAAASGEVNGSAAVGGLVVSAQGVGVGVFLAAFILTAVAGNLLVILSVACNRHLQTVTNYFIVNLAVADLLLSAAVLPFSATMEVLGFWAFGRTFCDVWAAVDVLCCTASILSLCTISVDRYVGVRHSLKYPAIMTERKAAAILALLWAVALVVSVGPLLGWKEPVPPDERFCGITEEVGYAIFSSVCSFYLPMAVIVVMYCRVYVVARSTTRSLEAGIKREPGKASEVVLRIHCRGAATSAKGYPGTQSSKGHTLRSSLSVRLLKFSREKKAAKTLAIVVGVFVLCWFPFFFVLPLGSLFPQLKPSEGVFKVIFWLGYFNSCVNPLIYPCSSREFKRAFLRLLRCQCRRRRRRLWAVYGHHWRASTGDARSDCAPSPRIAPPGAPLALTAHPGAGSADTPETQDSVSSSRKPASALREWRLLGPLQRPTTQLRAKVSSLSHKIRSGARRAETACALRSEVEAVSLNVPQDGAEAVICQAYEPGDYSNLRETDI
T2 sequence (P43140 whole entry): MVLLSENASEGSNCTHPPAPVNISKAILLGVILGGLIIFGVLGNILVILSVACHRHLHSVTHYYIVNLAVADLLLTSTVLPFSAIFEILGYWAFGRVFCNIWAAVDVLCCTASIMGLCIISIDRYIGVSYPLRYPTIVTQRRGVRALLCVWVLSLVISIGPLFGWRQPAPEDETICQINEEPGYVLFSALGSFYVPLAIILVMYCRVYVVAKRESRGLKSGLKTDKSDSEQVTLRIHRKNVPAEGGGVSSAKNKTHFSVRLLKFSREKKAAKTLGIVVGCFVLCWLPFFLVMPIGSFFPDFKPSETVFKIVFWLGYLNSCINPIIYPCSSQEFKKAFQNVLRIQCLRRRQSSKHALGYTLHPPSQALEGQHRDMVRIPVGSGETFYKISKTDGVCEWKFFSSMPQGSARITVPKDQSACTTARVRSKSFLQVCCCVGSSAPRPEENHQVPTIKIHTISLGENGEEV
The assay is described as follows: Affinity towards alpha-1 adrenergic receptor from rat cortex using [3H]prazosin radioligand (For prazosin Ki(nM)= […]+/-[…]).

The test system of assay [11] is Mus musculus. The assay is described as follows: Time-dependent effect on 8-OH-DPAT-induced hypothermia (change in body temperature) after 30 min, in mice at 0.5 mg/kg dose. In kind it is functional.
Assay [12] relates to Mus musculus. Kind of assay: Time-dependent effect on 8-OH-DPAT-induced hypothermia (change in body temperature) after 15 min, in mice at 5 mg/kg dose. In kind it is functional.
The subject of assay [13] is Mus musculus. The assay is described as follows: Time-dependent effect on 8-OH-DPAT-induced hypothermia (change in body temperature) after 60 min, in mice at 0.5 mg/kg dose. Format: functional.
Assay [14] deals with Mus musculus. Kind of assay: Time-dependent effect on 8-OH-DPAT-induced hypothermia (change in body temperature) after 15 min, in mice at 0.1 mg/kg dose. Format: functional.
The subject of assay [15] is Mus musculus. The assay is described as follows: Effect on immobility time in the forced swimming test (FST) in mice at 0.1 mg/kg dose. Format: functional.
Assay [16] concerns the target T1, 5-hydroxytryptamine receptor 1A (Homo sapiens). The conditions noted are these: HeLa. The source holds these as a separate data set.
Description: Effect on Forskolin-Stimulated cAMP formation, in HeLa cells transfected with the 5-HT 1A receptor at 1 uM concentration
For assay [17], the target named is Sodium-dependent serotonin transporter (Rattus norvegicus, UniProt P31652). Kind of assay: Binding affinity towards Serotonin transporter from rat cortex measured using [3H]paroxetine. The conditions noted are these: read-out: Ki.
Sequence of Sodium-dependent serotonin transporter (P31652 whole entry): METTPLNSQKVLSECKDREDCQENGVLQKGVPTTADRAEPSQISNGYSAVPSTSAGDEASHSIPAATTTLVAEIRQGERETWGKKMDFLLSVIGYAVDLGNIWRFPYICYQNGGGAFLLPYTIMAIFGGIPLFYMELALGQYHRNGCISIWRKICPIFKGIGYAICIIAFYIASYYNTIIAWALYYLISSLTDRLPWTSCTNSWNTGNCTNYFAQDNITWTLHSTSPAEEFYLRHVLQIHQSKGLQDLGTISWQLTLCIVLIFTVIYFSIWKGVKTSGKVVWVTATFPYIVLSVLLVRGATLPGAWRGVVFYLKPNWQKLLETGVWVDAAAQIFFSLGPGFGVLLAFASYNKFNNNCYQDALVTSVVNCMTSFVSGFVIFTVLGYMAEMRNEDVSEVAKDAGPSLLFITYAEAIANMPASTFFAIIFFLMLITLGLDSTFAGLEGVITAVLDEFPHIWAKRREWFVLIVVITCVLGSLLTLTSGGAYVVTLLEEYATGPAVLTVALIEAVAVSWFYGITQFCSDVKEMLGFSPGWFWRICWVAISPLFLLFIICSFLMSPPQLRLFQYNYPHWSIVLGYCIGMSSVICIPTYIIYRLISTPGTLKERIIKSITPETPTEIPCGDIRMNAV
For assay [18], the system named is Rattus norvegicus. The assay is described as follows: Effect on helpless behavior in rats and the number of escape failures was determined in shuttle-box session-2 (SB-2) at 1 mg/kg dose. Format: functional.

One may read the Ki as a measure of affinity in units of concentration, obtained from inhibition or displacement. Take `COc1ccccc1N1CCN(CCC(O)c2csc3ccccc23)CC1` (centres undefined): the “No. of escape failures” value is 8 in the assay with Rattus norvegicus [1] and 2.3 in the assay on Rattus norvegicus [18]. Further, the Immobility time in the assay on Mus musculus [2] is 101.8 s; with Mus musculus [6], 143.5 s; with Mus musculus [9], 145 s; with Mus musculus [15] it was less than 99.5 s. Further, the Temperature change with Mus musculus [3] was -0.4 °C; with Mus musculus [5] it was -1.23 °C; with Mus musculus [7], -1.16 °C; with Mus musculus [8] it was -1.3 °C; with Mus musculus [11], -1.38 °C; in the assay on Mus musculus [12], -2.2 °C. In addition, the Temperature change in the assay on Mus musculus [13] was -0.63 °C; in the assay with Mus musculus [14], -1.6 °C. Moreover, the cAMP came out at 18.1 pmol/well in assay [4] and 19.1 pmol/well in assay [16]. For the same compound, the values for the Ki in assay [10] and in [17] were 35 nM and 20 nM, respectively.

Regarding `COc1ccccc1N1CCN(CCC(=O)c2csc3ccccc23)CC1`, the “No. of escape failures” value is less than 9.8 in the assay on Rattus norvegicus [1] and less than 4 in the assay on Rattus norvegicus [18]. In addition, the Immobility time in the assay on Mus musculus [2] is on record as less than 77.1 s; in the assay on Mus musculus [6], less than 86.6 s; in the assay with Mus musculus [9], 169.4 s; in the assay on Mus musculus [15], 141.4 s. In addition, the Temperature change in the assay with Mus musculus [3] is -1.13 °C; in the assay on Mus musculus [5] it was less than -1.58 °C; with Mus musculus [7] it was -1.27 °C; with Mus musculus [8], -1.66 °C; in the assay with Mus musculus [11], less than -0.86 °C; in the assay with Mus musculus [12], -2.53 °C. The Temperature change in the assay on Mus musculus [13] was less than -0.47 °C; in the assay with Mus musculus [14] it was -2.14 °C. Moreover, the values for the cAMP in assay [4] and in assay [16] were less than 20.8 pmol/well and 27 pmol/well, respectively. In addition, the Ki was determined as 6 nM in [10] and 105 nM in assay [17].

Turning to `COc1ccccc1N1CCN(CCC(Oc2cccc3ccccc23)c2ccsc2)CC1` (centres undefined), the “No. of escape failures” value with Rattus norvegicus [1] was 5.8; in the assay on Rattus norvegicus [18], 1.3. Further, the Immobility time in the assay on Mus musculus [2] was less than 91.6 s; with Mus musculus [6], less than 91.1 s; with Mus musculus [9] it was 157.1 s; in the assay with Mus musculus [15], 194.4 s. The Temperature change was -1.16 °C with Mus musculus [3]; -1.72 °C in the assay with Mus musculus [5]; -1.22 °C with Mus musculus [7]; -1.54 °C in the assay with Mus musculus [8]; -1.35 °C with Mus musculus [11]; -2.73 °C in the assay with Mus musculus [12]. The Temperature change was -0.52 °C in the assay on Mus musculus [13] and -2.12 °C in the assay on Mus musculus [14]. The values for the cAMP in [4] and in assay [16] were less than 15.4 pmol/well and 28.5 pmol/well, respectively. Also, the Ki came out at 135 nM in assay [10] and 150 nM in [17].

Values taken from ChEMBL document CHEMBL1134339, “New 1-aryl-3-(4-arylpiperazin-1-yl)propane derivatives, with dual action at 5-HT1A serotonin receptors and serotonin transporter, as a new class of antidepressants” (J Med Chem, 2001).
